# Test system: SARS-CoV-2 (D614G) pseudovirus
# Settings: 24 h
structure (smiles),measurement,value
CC[C@H](C)[C@H](NC(=O)[C@H](C)NC(=O)[C@H](CCC(=O)O)NC(=O)[C@H](CCC(=O)O)NC(=O)[C@H](CC(C)C)NC(=O)[C@H](CCCCN)NC(=O)[C@H](CCCCN)NC(=O)[C@H](CCSC)NC(=O)[C@H](CCC(=O)O)NC(=O)[C@H](Cc1ccc(O)cc1)NC(=O)[C@H](CCC(=O)O)NC(=O)[C@H](CC(C)C)NC(=O)[C@H](CC(=O)O)NC(=O)[C@H](CC(C)C)NC(=O)[C@H](Cc1ccccc1)NC(=O)[C@@H](NC(=O)[C@@H](NC(=O)[C@H](CC(N)=O)NC(=O)[C@@H](NC(=O)[C@H](CCC(N)=O)NC(=O)[C@H](CC(=O)O)NC(=O)[C@H](CC(C)C)NC(=O)[C@H](CO)NC(C)=O)[C@@H](C)CC)C(C)C)[C@@H](C)O)C(=O)N[C@@H](CCCCN)C(=O)N[C@@H](CCCCN)C(=O)N[C@@H](CC(C)C)C(=O)N[C@@H](CCC(=O)O)C(=O)N[C@@H](CCC(=O)O)C(=O)N[C@@H](CO)C(=O)N[C@@H](Cc1ccc(O)cc1)C(=O)N[C@H](C(=O)N[C@@H](CC(=O)O)C(=O)N[C@@H](CC(C)C)C(=O)N[C@@H](CCCCN)C(=O)N[C@@H](CCC(=O)O)C(=O)N[C@@H](CC(C)C)C(N)=O)[C@@H](C)CC [EK1],IC50,308 nM

# From patent publication EP4722231A1, “BIOSYNTHESIS METHOD FOR BROAD-SPECTRUM ANTIVIRAL POLYPEPTIDE” (Shanxi Jinbo Bio-Pharmaceutical Co., Ltd., priority 2023, dated 2025)
